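A five-concentration, 48-hour dose response in 96-well plates underlies each endpoint, interpolated linearly between surrounding concentrations. GI50 is the concentration that inhibits growth by half. TGI marks complete inhibition of growth.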
Key:
Assay in all cases: inhibition of tumour cell growth, NCI panel, 48 h
KM12 colon = tested on: KM12 colon
UACC-62 melanoma = tested on: UACC-62 melanoma
SK-OV-3 ovarian = tested on: SK-OV-3 ovarian
IGROV1 ovarian = tested on: IGROV1 ovarian
SR leukemia = tested on: SR leukemia
DU-145 prostate = tested on: DU-145 prostate
NCI/ADR-RES ovarian = tested on: NCI/ADR-RES ovarian
MOLT-4 leukemia = tested on: MOLT-4 leukemia
RXF 393 renal = tested on: RXF 393 renal
UACC-257 melanoma = tested on: UACC-257 melanoma
HOP-92 NSCLC = tested on: HOP-92 NSCLC
COLO 205 colon = tested on: COLO 205 colon
SF-268 CNS = tested on: SF-268 CNS
HCT-15 colon = tested on: HCT-15 colon
LOX IMVI melanoma = tested on: LOX IMVI melanoma
HS 578T breast = tested on: HS 578T breast
NCI-H522 lung = tested on: NCI-H522 lung
EKVX NSCLC = tested on: EKVX NSCLC
TK-10 renal = tested on: TK-10 renal
NCI-H23 lung = tested on: NCI-H23 lung
SF-539 CNS = tested on: SF-539 CNS
786-0 renal = tested on: 786-0 renal
MDA-MB-435 = tested on: MDA-MB-435
SNB-19 CNS = tested on: SNB-19 CNS
HT29 colon = tested on: HT29 colon
RPMI-8226 leukemia = tested on: RPMI-8226 leukemia
HL-60(TB) leukemia = tested on: HL-60(TB) leukemia
MCF7 breast = tested on: MCF7 breast
BT-549 breast = tested on: BT-549 breast
M14 melanoma = tested on: M14 melanoma
CCRF-CEM leukemia = tested on: CCRF-CEM leukemia
OVCAR-3 ovarian = tested on: OVCAR-3 ovarian
PC-3 prostate = tested on: PC-3 prostate
NCI-H460 lung = tested on: NCI-H460 lung
SW-620 colon = tested on: SW-620 colon
U251 CNS = tested on: U251 CNS
ACHN renal = tested on: ACHN renal
CAKI-1 renal = tested on: CAKI-1 renal
UO-31 renal = tested on: UO-31 renal
SK-MEL-28 melanoma = tested on: SK-MEL-28 melanoma
A549 NSCLC = tested on: A549 NSCLC
SF-295 CNS = tested on: SF-295 CNS
SK-MEL-2 melanoma = tested on: SK-MEL-2 melanoma
SN12C renal = tested on: SN12C renal
OVCAR-5 ovarian = tested on: OVCAR-5 ovarian
MDA-MB-231 breast = tested on: MDA-MB-231 breast
K-562 leukemia = tested on: K-562 leukemia
OVCAR-8 ovarian = tested on: OVCAR-8 ovarian
A498 renal = tested on: A498 renal
HCC-2998 colon = tested on: HCC-2998 colon
HCT-116 colon = tested on: HCT-116 colon
HOP-62 NSCLC = tested on: HOP-62 NSCLC
T-47D breast = tested on: T-47D breast
SK-MEL-5 melanoma = tested on: SK-MEL-5 melanoma

Compound `c1ccc2nc3c(cc4ccccn43)nc2c1` has a GI50 (KM12 colon) of 26.6 µM, a TGI (KM12 colon) greater than 100 µM and a GI50 (UACC-62 melanoma) of 17.4 µM. For the same compound, the TGI (UACC-62 melanoma) was greater than 100 µM, the GI50 (SK-OV-3 ovarian) was 97.4 µM and the TGI (SK-OV-3 ovarian) was greater than 100 µM. For the same compound, the GI50 (IGROV1 ovarian) was 1810 nM, the TGI (IGROV1 ovarian) was 26.1 µM and the GI50 (SR leukemia) was 52.5 µM. For the same compound, the TGI (SR leukemia) was greater than 100 µM, the GI50 (DU-145 prostate) was greater than 100 µM and the TGI (DU-145 prostate) was greater than 100 µM. For the same compound, the GI50 (NCI/ADR-RES ovarian) was greater than 100 µM, the TGI (NCI/ADR-RES ovarian) was greater than 100 µM and the GI50 (MOLT-4 leukemia) was 53.1 µM. For the same compound, the TGI (MOLT-4 leukemia) was greater than 100 µM, the GI50 (RXF 393 renal) was 30.1 µM and the TGI (RXF 393 renal) was greater than 100 µM. The GI50 (UACC-257 melanoma) was greater than 100 µM, the TGI (UACC-257 melanoma) was greater than 100 µM and the GI50 (HOP-92 NSCLC) was 30.9 µM. For the same compound, the TGI (HOP-92 NSCLC) was greater than 100 µM, the GI50 (COLO 205 colon) was 64 µM and the TGI (COLO 205 colon) was greater than 100 µM. The GI50 (SF-268 CNS) was greater than 100 µM, the TGI (SF-268 CNS) was greater than 100 µM and the GI50 (HCT-15 colon) was 73.4 µM. It also gave a TGI (HCT-15 colon) greater than 100 µM, a GI50 (LOX IMVI melanoma) of 47.1 µM and a TGI (LOX IMVI melanoma) greater than 100 µM. It also gave a GI50 (HS 578T breast) of 61.7 µM, a TGI (HS 578T breast) greater than 100 µM and a GI50 (NCI-H522 lung) of 21.5 µM. For the same compound, the TGI (NCI-H522 lung) was greater than 100 µM, the GI50 (EKVX NSCLC) was 18.9 µM and the TGI (EKVX NSCLC) was greater than 100 µM. It also gave a GI50 (TK-10 renal) of 8.36 µM, a TGI (TK-10 renal) of 55.1 µM and a GI50 (NCI-H23 lung) of 37.6 µM. For the same compound, the TGI (NCI-H23 lung) was greater than 100 µM, the GI50 (SF-539 CNS) was 36.7 µM and the TGI (SF-539 CNS) was greater than 100 µM. The GI50 (786-0 renal) was 35.7 µM, the TGI (786-0 renal) was greater than 100 µM and the GI50 (MDA-MB-435) was greater than 100 µM. The TGI (MDA-MB-435) was greater than 100 µM, the GI50 (SNB-19 CNS) was greater than 100 µM and the TGI (SNB-19 CNS) was greater than 100 µM. For the same compound, the GI50 (HT29 colon) was greater than 100 µM, the TGI (HT29 colon) was greater than 100 µM and the GI50 (RPMI-8226 leukemia) was greater than 100 µM. For the same compound, the TGI (RPMI-8226 leukemia) was greater than 100 µM, the GI50 (HL-60(TB) leukemia) was greater than 100 µM and the TGI (HL-60(TB) leukemia) was greater than 100 µM. The GI50 (MCF7 breast) was greater than 100 µM, the TGI (MCF7 breast) was greater than 100 µM and the GI50 (BT-549 breast) was greater than 100 µM. The TGI (BT-549 breast) was greater than 100 µM, the GI50 (M14 melanoma) was greater than 100 µM and the TGI (M14 melanoma) was greater than 100 µM. The GI50 (CCRF-CEM leukemia) was greater than 100 µM, the TGI (CCRF-CEM leukemia) was greater than 100 µM and the GI50 (OVCAR-3 ovarian) was greater than 100 µM. The TGI (OVCAR-3 ovarian) was greater than 100 µM, the GI50 (PC-3 prostate) was 63.7 µM and the TGI (PC-3 prostate) was greater than 100 µM. It also gave a GI50 (NCI-H460 lung) greater than 100 µM, a TGI (NCI-H460 lung) greater than 100 µM and a GI50 (SW-620 colon) greater than 100 µM. It also gave a TGI (SW-620 colon) greater than 100 µM, a GI50 (U251 CNS) of 39.9 µM and a TGI (U251 CNS) greater than 100 µM. The GI50 (ACHN renal) was 60.2 µM, the TGI (ACHN renal) was greater than 100 µM and the GI50 (CAKI-1 renal) was 55.2 µM. It also gave a TGI (CAKI-1 renal) greater than 100 µM, a GI50 (UO-31 renal) of 6.25 µM and a TGI (UO-31 renal) greater than 100 µM. The GI50 (SK-MEL-28 melanoma) was greater than 100 µM, the TGI (SK-MEL-28 melanoma) was greater than 100 µM and the GI50 (A549 NSCLC) was 77.4 µM. For the same compound, the TGI (A549 NSCLC) was greater than 100 µM, the GI50 (SF-295 CNS) was 49.8 µM and the TGI (SF-295 CNS) was greater than 100 µM. It also gave a GI50 (SK-MEL-2 melanoma) of 43.8 µM, a TGI (SK-MEL-2 melanoma) greater than 100 µM and a GI50 (SN12C renal) of 70 µM. It also gave a TGI (SN12C renal) greater than 100 µM, a GI50 (OVCAR-5 ovarian) greater than 100 µM and a TGI (OVCAR-5 ovarian) greater than 100 µM. It also gave a GI50 (MDA-MB-231 breast) of 29.8 µM, a TGI (MDA-MB-231 breast) greater than 100 µM and a GI50 (K-562 leukemia) greater than 100 µM. For the same compound, the TGI (K-562 leukemia) was greater than 100 µM, the GI50 (OVCAR-8 ovarian) was 34.8 µM and the TGI (OVCAR-8 ovarian) was greater than 100 µM. The GI50 (A498 renal) was 31.4 µM, the TGI (A498 renal) was greater than 100 µM and the GI50 (HCC-2998 colon) was 61.8 µM. It also gave a TGI (HCC-2998 colon) greater than 100 µM, a GI50 (HCT-116 colon) of 23.5 µM and a TGI (HCT-116 colon) greater than 100 µM. For the same compound, the GI50 (HOP-62 NSCLC) was 18.9 µM, the TGI (HOP-62 NSCLC) was 74.1 µM and the GI50 (T-47D breast) was 88.1 µM. For the same compound, the TGI (T-47D breast) was greater than 100 µM, the GI50 (SK-MEL-5 melanoma) was 25.8 µM and the TGI (SK-MEL-5 melanoma) was greater than 100 µM.
